Test results reported in EP0342433A2, “Substituted dibenzothiaphenes” (AMERICAN CYANAMID COMPANY, priority 1988, dated 1989).

What was measured:
IL-1 = IL-1 assay: supernatants of peritoneal exudate cells of orally treated mice, tested on thymocytes; type: in vivo, C57BI/6 mice; settings: oral dose 25, 100 or 200 mg/Kg (not stated which), PEC collected four days later, 3H-TdR in thymocytes; for IL-1 ASSAY + LPS: with Lipopolysaccharide (10 μg/ml); for IL-1 ASSAY - LPS: without Lipopolysaccharide
Experimental: Groups of C57BI/6 mice were treated orally with immunomodulator at doses of 25, 100 or 200 mg/Kg. Four days later peritoneal exudate cells (PEC) were collected and 1 x 10^5 cells were plated in RPMI-1640 medium containing 5% fetal calf serum (FCS). After 2 hours incubation at 37°C the non-adherent cells were washed off and the adherent cells were incubated for 24 hours in RPMI medium with 5% FCS with or without Lipopolysaccharide (10 u.g/ml). The following day the supernatants were collected and assayed for IL-1 on thymocytes. The cultures were incubated for 3 days and then pulsed with ^3H-TdR using 0.5 µCi/well. The cells were harvested and the number of counts per minute (CPM) was determined using a Beckman scintillation counter.

[1] = system: colony stimulating factor (CSF); test: Colony stimulating factor production: mouse sera tested on normal bone marrow cells; type: in vivo, mice; settings: 10% test serum on normal marrow cells, 3 days, 3HTdR; for Production of Colony Stimulating Factor, CPM Test No. 2: control 3,118; for Production of Colony Stimulating Factor, CPM Test No. 1: control 548
Experimental: Mouse femurs were removed and the marrow cells collected by aspiration through a 23 gauge needle and dispensed into 5 ml of RPMI 1640 culture medium. Aliquots were diluted with a 2% solution of acetic acid containing 0.2% crystal violet and the number of nucleated cells per femur was determined by direct count in a hemocytometer.
Mouse sera were assayed for colony stimulating factor (CSF) in cultures of normal bone marrow cells. CSF was tested in a system in which 5 x 10" normal marrow cells were incubated with 10% test samples in each well of 96-well culture plates for 3 days. Proliferation of these cells was determined by ^3HTdR incorporation.

IL-2 = IL-2 assay: supernatants of Con A stimulated lymphocytes of treated mice, proliferation of indicator cells; type: in vivo; settings: mice treated with 100 mg/kg, Con A for 2 days; for IL-2 ASSAY CPM, % Supernatants Tested 5: 5 % supernatant; for IL-2 ASSAY CPM, % Supernatants Tested 10: 10 % supernatant; for IL-2 ASSAY CPM, % Supernatants Tested 20: 20 % supernatant
Experimental: Spleens were removed from mice and single-cell suspensions were prepared by teasing the spleens apart and rinsing through No. 40 and No. 80 stainless steel mesh screens. Erythrocytes were lysed by a 3- minute exposure to a 0.83% Tris-ammonium chloride solution. Cells were washed 3 times with HBSS and finally suspended in complete RPMI 1640 culture medium consisting of 5% FCS, 2mM L-glutamine, 5 x 10^-5M 2-mercaptoethanol, 10mM HEPES, 100 U/ml of penicillin, and 100 µg/ml of streptomycin. Cells were counted in a hemocytometer and the viability of test cells was always greater than 98% as judged by trypan blue dye exclusion.
IL-2 was made by stimulating 10^7 B6 splenocytes with 1 µg Con A in 1 ml medium. Supernatants were harvested 2 days later and residual Con A was removed by Sephadex G-50 absorption or a-methyl mannoside inactivation. IL-2 activity was tested in the thymocyte proliferation assay described above. Additionally, test samples were added to cultures of lymphoblasts prepared by a three-day Con A stimulation or to IL-2 dependent CT11-2 cells. The proliferation of these indicator cells was measured 24 hours later by ^3HTdR incorporation.
Lymphocytes prepared from normal mice or mice treated with 100 mg/kg of test compound were stimulated with Con A for 2 days. Culture supernatants were harvested and tested for putative IL-2 activity in 3 proliferation assays using thymocytes, lymphoblasts and CTLL-2 cells as indicators. Although supernatants from normal lymphocytes supported the growth of all indicator cells, lymphocytes from treated animals apparently produced more IL-2 as indicated by a greater degree of cell proliferation in all three test systems.

SRBC = test: Anti-SRBC antibody assay (antibody forming cells, plaques); type: in vivo, mice; settings: oral, day 0, 200 or 600 mg/kg, SRBC IP day +4; for Production of Anti-SRBC Antibody, CPM Test No. 1: control 1,260; for Production of Anti-SRBC Antibody, CPM Test No. 2: control 830
Experimental: Compounds were given orally on day 0 at doses of 200 or 600 mg/kg. 0.1 ml of a 10% suspension of sheep RBC (Red Blood Cell) was given IP on day +4. Ten days later splenocytes were obtained from these mice and either 4 x 10^6 ot 2 x 10^6 splenocytes in 50 µl were mixed with 50 µl of a 15% suspension of SRBC containing guinea pig complement (1:4 dilution). 100 ul of this mixture was placed onto a slide culture and incubated for 30 to 45 minutes at 37°C. The number of antibody forming cells was determined by counting the number of visible plaques formed.

P815 tumor cells = test: Macrophage mediated tumor cytostasis (activation of tumoricidal macrophages in compound-treated mice); type: in vivo; settings: macrophages from compound-treated mice vs normal control macrophages; 3HTdR incorporation into P815 cells; single oral dose, day 4
Source text: The test compounds apparently were able to activate these cells in vivo to inhibit the growth of tumor cells in cultures. These "activated" macrophages were detectable in peritoneal exudates of treated mice on day 4 after receiving a single oral dose of the test compound. (Table I). […] (Tables II and III). […] (Table V). Mice treated with the test compounds also respond better to foreign antigens such as sheep red blood cells (SRBC) as shown by their ability to produce higher levels of antibody to this foreign protein. (Table IV). […]
P815 tumor cells obtained from D2 mice were washed twice with HBSS and suspended in 10% FCS- complete medium. Five x 10^3 P815 cells were added to culture wells containing B6 macrophages and the E:T ratios were determined by the numbers of PE cells added initially to each well. […] The amount of ^3HTdR incorporated into target cells was determined in a liquid scintillation counter. The mean cpm were obtained from triplicate cultures with results being presented as percent cytostasis calculated by the fol lowing formula: % cytostasis = (A-B)/A x 100 where A = cpm of cultures containing normal control macrophages; and B = cpm of cultures containing experimental macrophages obtained from compound-treated mice.

CCC(=Nc1ccc2c(c1)S(=O)(=O)c1cc(N=C(CC)N(C)C)ccc1-2)N(C)C [N , N"-3,7-Dibenzothiophenediylbis[N,N-dimethylpropanimidamide] S,S-dioxide]
IL-1 ASSAY + LPS (IL-1): 56,015 CPM
IL-1 ASSAY - LPS (IL-1): 31,260 CPM
Production of Colony Stimulating Factor, CPM Test No. 2 [1]: 6,650 CPM
IL-2 ASSAY CPM, % Supernatants Tested 5 (IL-2): 3,238 CPM
IL-2 ASSAY CPM, % Supernatants Tested 10 (IL-2): 9,050 CPM
IL-2 ASSAY CPM, % Supernatants Tested 20 (IL-2): 14,568 CPM
Production of Anti-SRBC Antibody, CPM Test No. 1 (SRBC): 1,437 CPM

CCC(=Nc1ccc2c(c1)S(=O)(=O)c1cc(F)ccc1-2)N(C)C [N'-(7-Fluoro-3-dibenzothienyl)N,N-dimethylpropanimidamide S,S-dioxide]
% Cytostasis (P815 tumor cells): 77.4%
Production of Colony Stimulating Factor, CPM Test No. 1 [1]: 1,353 CPM
Production of Anti-SRBC Antibody, CPM Test No. 2 (SRBC): 1,474 CPM

CCC(=Nc1ccc2c(c1)-c1cc(N=C(CC)N(C)C)ccc1S2(=O)=O)N(C)C [N,N'"-2,8-Dibenzothiophenediyibis[N,N-dimethyipropanimidamide] S,S-dioxide]
IL-1 ASSAY + LPS (IL-1): 44,983 CPM
IL-1 ASSAY - LPS (IL-1): 52,160 CPM
Production of Colony Stimulating Factor, CPM Test No. 2 [1]: 6,513 CPM
IL-2 ASSAY CPM, % Supernatants Tested 5 (IL-2): 2,766 CPM
IL-2 ASSAY CPM, % Supernatants Tested 10 (IL-2): 6,457 CPM
IL-2 ASSAY CPM, % Supernatants Tested 20 (IL-2): 11,288 CPM
Production of Anti-SRBC Antibody, CPM Test No. 1 (SRBC): 1,029 CPM

CC(=O)Nc1ccc2c(c1)S(=O)(=O)c1cc(F)ccc1-2 [N-(7-Fluoro-3-dibenzothienyl)acetamide S,S-dioxide]
IL-1 ASSAY + LPS (IL-1): 36,320 CPM
IL-1 ASSAY - LPS (IL-1): 50,677 CPM
% Cytostasis (P815 tumor cells): 13.9%
Production of Colony Stimulating Factor, CPM Test No. 1 [1]: 976 CPM
IL-2 ASSAY CPM, % Supernatants Tested 5 (IL-2): 2,849 CPM
IL-2 ASSAY CPM, % Supernatants Tested 10 (IL-2): 5,653 CPM
IL-2 ASSAY CPM, % Supernatants Tested 20 (IL-2): 10,982 CPM
Production of Anti-SRBC Antibody, CPM Test No. 2 (SRBC): 1,469 CPM
